Entries after “also recorded” stand apart in the source; their conditions may differ.
Test system: panel of up to 42 human chemokines
Assay: Phage-display next generation sequencing screen of overlapping hexadecapeptide libraries, chemokines displayed on streptavidin beads;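 also: chemokine listed when log2 fold enrichment exceeds 5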
Format: binding
Procedure, shortened: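 Phage-display libraries of 55662 overlapping hexadecapeptides from tick and viral chemokine-binding proteins, human chemokines and chemokine receptors screened against up to 42 human chemokines, with hits found by next-generation sequencing. Peptides mapped to parent-protein position with log2 fold enrichment; regions of interest where cumulative residue log2 E exceeds the 95% upper CI of the protein median.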

[1] = log2E greater than 5, chemokines named by first part of UniProt entry name, C5a (control) binders excluded
[2] = log2E greater than 5, chemokines named by first part of UniProt Entry Name
[3] = log2E greater than 5, chemokines named by first part of UniProt Entry Name, peptides binding complement C5a (control) excluded

Substance	Chemokines Bound [1]	Chemokines Bound [2]	other results
CR11776 (LAVKIVFSFIWGVLPT)	CCL17, CCL18,; also recorded: CCL19, CCL20,; also recorded: CCL22, CCL25,; also recorded: CCL8, X3CL1,; also recorded: CXL10, CXL11,; also recorded: SDF1, CXL13,; also recorded: CXL14, IL8	–	–
CK1408 (FSRCCFSFAEQEIPLR)	CCL1, CCL2,; also recorded: CCL8, CXL14	–	–
CR27428 (YLKAFLAAVLGWHLAP)	–	CCL17, CCL18,; also recorded: CCL2, CCL20,; also recorded: X3CL1, CXL10,; also recorded: CXL11, SDF1,; also recorded: CXL14	–
CR26155 (VVLIFLLSWLPYNLVL)	–	CCL15, CCL28,; also recorded: CXL10, CXL13	–
CR23773 (TSVITWLVAVFASVPG)	–	CCL1, CCL18, and CCL2, CCL20, and CCL8	–
CR27514 (YLYVYLDIFSVVSVSL)	–	CCL1, CCL19, and SDF1	–
CR23945 (TVITFSLYVGQFLAYV)	–	CCL1, CCL15,; also recorded: CCL20, CCL22,; also recorded: CCL28, CXL10,; also recorded: CXL11, SDF1,; also recorded: CXL13	–
CR12308 (LFTLYVSTLDFCIVFI)	CCL20, CCL22, and CCL28, CXL10, and SDF1	–	–
CR5475 (FLFHLAVADLLLVFIL)	–	CCL20, CCL22,; also recorded: CCL28, CXL10,; also recorded: CXL11, SDF1,; also recorded: CXL14	–
CR8966 (IFWWIFAVIIAIPHFM)	–	–	Chemokines Bound [3]: IL8
CR2439 (CALVTLITSLFGSIFK)	–	CCL17, CCL18, and CCL19, CCL20, and CXL10, SDF1, and CXL13, CXL14, and IL8	–
CR18189 (QHNLFFLLSLGIILFC)	CCL17, CCL18,; also recorded: CCL22, CCL25,; also recorded: X3CL1, CXL14	–	–
VP485 (AMMLSLLIAGMSLMLG)	–	–	Chemokines Bound [3]: CCL11, CCL25, and CCL28, CCL5, and CXL11, CXL14, and IL8
CR5598 (FLLSLGIILFSYVEIL)	–	–	Chemokines Bound [3]: CCL18, CCL19, and CXL10, CXL11, and SDF1, CXL14, and IL8
CR20939 (SLCLSISLLAEVLMFL)	CCL1, CCL18,; also recorded: CCL19, X3CL1	–	–
CR11478 (LAFIYVLMFLANAIGN)	CCL1, CCL20,; also recorded: CXL11, SDF1,; also recorded: CXL13, CXL14	–	–
CR15153 (LYSLLFLLGLLGNGAV)	CCL18, CCL22,; also recorded: CCL25	–	–
CR15079 (LYAHLASAFLWVVVAV)	CCL17, CCL18,; also recorded: CCL20, CCL22,; also recorded: CCL28, X3CL1,; also recorded: CXL10, CXL11,; also recorded: SDF1, CXL13,; also recorded: CXL14, IL8	–	–
EB936 (EKSDEYELFTVEYCGT)	–	–	Chemokines Bound [3]: CXL10, CXL11,; also recorded: SDF1, CXL13
CR5277 (FILYQFELFGFTLIFF)	–	CCL17, CCL22, and CCL25, CCL28, and CXL10, CXL11, and SDF1	–
VP6154 (MKSVLYLYILFLSCII)	–	–	Chemokines Bound [3]: CCL1, X3CL1, and CXL10, CXL11, and IL8
CR26817 (WVLGDFLCKLLNMIFS)	–	CCL1, CCL17, and CCL18, CCL20, and CCL28, X3CL1, and CXL10, CXL11, and CXL13, CXL14, and IL8	–
CR23379 (TNFDFMILNLSFADLF)	–	CCL17, CCL18,; also recorded: X3CL1	–
CR23880 (TTVILILAFFASWLPY)	–	CCL1, CCL18,; also recorded: CCL20, CCL25,; also recorded: CCL28, SDF1,; also recorded: CXL14	–
CR26536 (WGWVLGDFLCKLLNMI)	–	CCL1, CCL11,; also recorded: CCL17, CCL18,; also recorded: CCL20, CCL22,; also recorded: CCL28, CCL5,; also recorded: X3CL1, CXL10,; also recorded: SDF1, IL8	–
CR17126 (PCGIITSVLAWVTAIL)	CCL1, CCL20,; also recorded: CCL22, CCL28,; also recorded: X3CL1, CXL10,; also recorded: CXL11, SDF1,; also recorded: CXL14, IL8	–	–
CR5055 (FFYYLYVYLDIFSVVA)	–	CCL18, CCL2, and CCL22, CXL10, and SDF1	–

Substance	Chemokines Bound [1]	Chemokines Bound [2]	other results
CR20660 (SIILMFLSDFSFIFSS)	CCL25, CXL13, and IL8	–	–
CR6746 (GDFLAKLLNMIFSISL)	–	–	Chemokines Bound [3]: CCL20, CCL25,; also recorded: CCL28
CR6605 (FYVAMFASLSFITEIA)	–	–	Chemokines Bound [3]: CXL10, CXL11, and IL8
CR3302 (DLFIGIKIVYSFLWGI)	–	CCL1, CCL17,; also recorded: CCL18, CCL20,; also recorded: CCL22, CCL28,; also recorded: CXL10, CXL11,; also recorded: CXL13, IL8	–
CR6097 (FSIFWWIFAVIIAIPH)	–	–	Chemokines Bound [3]: CXL10, SDF1,; also recorded: IL8, CCL1,; also recorded: CCL15, CCL22,; also recorded: CCL5, X3CL1,; also recorded: CXL11, CXL13
CR20965 (SLFAALVTLITSLFGS)	CCL11, CCL17,; also recorded: CCL18, CCL19,; also recorded: CCL2, CCL20,; also recorded: CCL28, X3CL1,; also recorded: CXL10, CXL11,; also recorded: CXL14, IL8	–	–
CR26232 (VVTSVITWVVAVFASL)	–	CCL17, CCL18,; also recorded: CCL28, CCL8,; also recorded: X3CL1, CXL10,; also recorded: SDF1, CXL14	–
CR26633 (WLMSIVGTFLNMLVIT)	–	CCL11, CCL17,; also recorded: CCL18, CCL19,; also recorded: CCL20, CCL22,; also recorded: CCL25, CCL28,; also recorded: X3CL1, CXL10	–
CR9113 (IIFSYVVVFLVSWLPY)	–	–	Chemokines Bound [3]: CCL17, CCL20, and CCL22, CCL28, and X3CL1, CXL10, and CXL11, SDF1, and CXL13, CXL14, and IL8
CR5236 (FIFVIGMIANSVVVWV)	–	CCL19, CCL28,; also recorded: CXL11, SDF1,; also recorded: CXL13, IL8	–
CR2301 (AWLPYYIGISIDSFIL)	–	CCL17, CCL19,; also recorded: CCL20	–
CK576 (CADPSESWVQEYVYDL)	CCL17, CCL5,; also recorded: CXL10	–	–
VP10866 (VNASIAWFFDFGACRM)	–	–	Chemokines Bound [3]: X3CL1, CXL10,; also recorded: CXL11
CR14752 (LVFIFGFVGNMLVVLI)	CCL17, CCL25,; also recorded: CXL10	–	–
CR15077 (LYAHLAAAFLWVVVAV)	CCL18, CCL19,; also recorded: CCL20, CCL22,; also recorded: CCL25, CCL28,; also recorded: CXL10, CXL11,; also recorded: SDF1, IL8	–	–
CR26801 (WVFIFSSIQLCTVVFL)	–	CCL1, CCL17,; also recorded: CCL18, CCL19,; also recorded: CCL20, CCL28,; also recorded: X3CL1, SDF1	–
CR11720 (LATFKILICIVWGVMP)	CCL17, CCL18,; also recorded: CCL19, CCL20,; also recorded: CCL25, CXL10,; also recorded: CXL14	–	–
CR26592 (WKLLAEIYEYLFFFSF)	–	CCL19, CCL20,; also recorded: CCL22, CXL14	–
CR12439 (LGIMLFAYSMIIRTLQ)	CCL17, CCL18,; also recorded: CCL20, CCL25	–	–
VP4071 (IKAESKGSELILLDPP)	–	–	Chemokines Bound [3]: CCL17, CCL20,; also recorded: CCL22
CR26521 (WGLALLFALPDFIFLS)	–	CCL15, CXL13, and IL8	–
CR26041 (VTSVITWLVAVFASVP)	–	CCL2, X3CL1,; also recorded: CXL11, IL8	–
CR11295 (KVLWALQYIGLGFFAA)	CCL17, CCL18,; also recorded: CCL2, CXL10,; also recorded: SDF1, CXL14	–	–
EB3085 (SGLCLSTTYIDFSEYG)	–	–	Chemokines Bound [3]: CXL10, CXL11,; also recorded: SDF1, CXL14
CR2129 (AVFYALLFVFSLLGNS)	CCL15, CCL18, and CCL19, CCL20, and CCL25, CCL28, and SDF1	–	–
CR1004 (ALAFIYVLMFLCNAIG)	CCL17, CCL18,; also recorded: CCL19, CCL20,; also recorded: CXL10, CXL14	–	–
CR9889 (ISLLAEVLMFLFPNII)	–	–	Chemokines Bound [3]: CCL17, CCL18,; also recorded: CCL20, CCL25,; also recorded: CCL28, CXL13

Substance	Chemokines Bound [1]	Chemokines Bound [2]	other results
EB3974 (VGLCLSTEYTDFSEYP)	–	–	Chemokines Bound [3]: CXL10, SDF1,; also recorded: CXL14
CR24594 (VFLLSLVGNSLVLWVL)	–	CCL22, X3CL1, and CXL11, CXL13, and IL8	–
CR4135 (EIYEYLFFFSFFFLAL)	–	CCL20, CCL25,; also recorded: CXL11, CXL13	–
CR14780 (LVFVIGLVGNILVVLV)	CCL17, CCL18,; also recorded: CCL19, CCL20,; also recorded: CCL22, CCL25,; also recorded: CCL28, X3CL1,; also recorded: CXL10, CXL14	–	–
CR8675 (IAYSLIAVFGLLGNIL)	–	–	Chemokines Bound [3]: CCL17, CCL22,; also recorded: CCL25, CCL28,; also recorded: CXL11
CR26306 (VWLMAIVGTFLNVLVI)	–	CCL22, CXL11,; also recorded: CXL13	–
CR26001 (VTLTSLAVWGLSLLFA)	–	CCL11, CCL2,; also recorded: CCL28, SDF1	–
CR2290 (AWFLPIMYSIICFVGL)	CCL1, CCL17,; also recorded: CCL18, CCL19,	CCL20, CCL22, and CCL25, CCL28, and X3CL1, CXL10, and CXL11, SDF1, and CXL13, CXL14, and IL8	–
LEEEDDYTAYAPLTCY [HD2134]	–	–	Chemokines Bound [3]: CCL1, CCL11, and CCL15, CCL17, and CCL18, CCL22, and CCL4, CCL5, and CCL8
CR9284 (ILAFFASWLPYYIGIS)	–	–	Chemokines Bound [3]: CCL17, CCL18,; also recorded: CCL25
CR9218 (IITSVLAWVTAILATL)	–	–	Chemokines Bound [3]: CCL17, CCL18, and CXL11, CXL14, and IL8
CK3115 (LLESYFETNSECSKPG)	CCL19, CCL22,; also recorded: X3CL1, CXL14	–	–
CR26831 (WVLVIGSLVARWLLGI)	–	CCL17, CCL2,; also recorded: X3CL1, CXL10	–
CR13203 (LLIMLFSYGFTLRTLF)	CCL18, CCL22, and CCL28, X3CL1, and SDF1	–	–
CR12163 (LFIGIKIVYAFLWGIF)	CCL18, CCL19,; also recorded: CCL2, CCL25,; also recorded: CCL28, X3CL1,; also recorded: CXL10, SDF1,; also recorded: CXL13, CXL14	–	–
CR5243 (FIGFFSGIFFIILLTI)	–	CCL17, CCL18,; also recorded: CCL19, CCL20,; also recorded: CCL22, CXL11,; also recorded: SDF1, CXL14	–
CR6611 (FYVITLFASDFVLMWC)	–	–	Chemokines Bound [3]: CCL22, CCL25,; also recorded: X3CL1, CXL13
CR4753 (FAQLVYFIYHAVASYS)	–	CCL2, CXL13, and IL8	–
CR17907 (PYHWGWVLGDFLAKLL)	CCL17, CCL18,; also recorded: CCL25	–	–
EB2047 (KSDEYELFTVEYCGTN)	–	–	Chemokines Bound [3]: CXL10, CXL11,; also recorded: SDF1, CXL14
CR4760 (FASFYLLDFILALVGN)	–	CCL22, CXL10,; also recorded: CXL11, SDF1,; also recorded: CXL13, IL8	–
CR14849 (LVLGLLLNSLALWVFC)	CCL17, CCL19, and CCL20, CCL28, and SDF1	–	–
CR14976 (LVTMAVWVASILSSIL)	CCL2, SDF1,; also recorded: CXL13	–	–
EEEDDYTAYAPLTCYF [HD7]	–	–	Chemokines Bound [3]: CCL1, CCL11, and CCL15, CCL17, and CCL18, CCL20, and CCL22, CCL3, and CCL4, CCL5, and CCL8
CR6163 (FSRAIDIIYSLITSSN)	–	–	Chemokines Bound [3]: CCL17, CCL18,; also recorded: CCL2, CCL22,; also recorded: CCL28, X3CL1,; also recorded: CXL14
EB3975 (VGLCLSTEYTDFTKFP)	–	–	Chemokines Bound [3]: CXL10, CXL11,; also recorded: SDF1, CXL14
